From PubChem BioAssay AID192 (DTP/NCI, 2004)
Where “and” joins values, the source holds several entries; their conditions need not be identical. Identical values can stand only once. Toxic doses and inconclusive results are not listed.

Tested on: BDF1 mice, B16 melanoma ip, median survival T/C
Assay: NCI In Vivo Anticancer Drug Screen. Data for tumor model B16 Melanoma (intraperitoneal) in B6D2F1 (BDF1) mice
Conditions: endpoint: median survival time, higher = longer survival
How it was run: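 In this screen, activity was judged from survival or tumor size in treated versus vehicle-treated tumor-bearing mice, reported as T/C.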

[1] = dose: 100.0 mg/kg/injection, schedule: Q01DX009 (ip), vehicle: Klucel (hydroxypropylcellulose) (HPC)
[2] = dose: 200.0 mg/kg/injection, schedule: Q01DX009 (ip), vehicle: Klucel (hydroxypropylcellulose) (HPC)
[3] = dose: 100.0 mg/kg/injection, schedule: Q01DX009 (ip), vehicle: saline with Tween-80
[4] = dose: 50.0 mg/kg/injection, schedule: Q01DX009 (ip), vehicle: Klucel (hydroxypropylcellulose) (HPC)
[5] = dose: 25.0 mg/kg/injection, schedule: Q01DX009 (ip), vehicle: saline with Tween-80
[6] = dose: 50.0 mg/kg/injection, schedule: Q01DX009 (ip), vehicle: saline with Tween-80

In the case of COc1cccc2c1C(=O)c1c(O)c3c(c(O)c1C2=O)C[C@@](O)(C(=O)CO)C[C@@H]3OC1CC(N)C(O)C(C)O1 (stereo partly specified), the T/C (dose: 0.12 mg/kg/injection, schedule: Q01DX009 (ip), vehicle: saline) is reported as 163 % of control, the T/C (dose: 0.13 mg/kg/injection, schedule: Q01DX009 (ip), vehicle: water) is reported as 202 % of control and the T/C (dose: 0.25 mg/kg/injection, schedule: Q01DX009 (ip), vehicle: water) is reported as 181 % of control and 202 % of control and 266 % of control. The T/C (dose: 0.37 mg/kg/injection, schedule: Q01DX009 (ip), vehicle: saline) was 412 % of control, the T/C (dose: 0.37 mg/kg/injection, schedule: Q03HX008 (ip), vehicle: saline) was 154 % of control and 270 % of control and the T/C (dose: 0.47 mg/kg/injection, schedule: Q01DX001 (ip), vehicle: water) was 175 % of control. For the same compound, the T/C (dose: 0.5 mg/kg/injection, schedule: Q01DX009 (ip), vehicle: water) was 222 % of control and 260 % of control and 274 % of control, the T/C (dose: 0.5 mg/kg/injection, schedule: Q03HX008 (ip), vehicle: saline) was 194 % of control and the T/C (dose: 0.75 mg/kg/injection, schedule: Q01DX001 (ip), vehicle: saline) was 162 % of control. The T/C (dose: 0.75 mg/kg/injection, schedule: Q01DX001 (ip), vehicle: water) was 154 % of control, the T/C (dose: 0.75 mg/kg/injection, schedule: Q01DX009 (ip), vehicle: saline) was 154 % of control and 412 % of control and the T/C (dose: 0.75 mg/kg/injection, schedule: Q03DX001 (ip), vehicle: saline) was 168 % of control. For the same compound, the T/C (dose: 0.75 mg/kg/injection, schedule: Q03HX008 (ip), vehicle: saline) was 164 % of control and 412 % of control, the T/C (dose: 0.75 mg/kg/injection, schedule: Q04DX003 (ip), vehicle: saline) was 210 % of control and the T/C (dose: 0.94 mg/kg/injection, schedule: Q01DX001 (ip), vehicle: water) was 194 % of control and 197 % of control. The T/C (dose: 1.0 mg/kg/injection, schedule: Q01DX009 (ip), vehicle: water) was 260 % of control and 274 % of control and 339 % of control, the T/C (dose: 1.0 mg/kg/injection, schedule: Q03HX008 (ip), vehicle: saline) was 169 % of control and the T/C (dose: 1.25 mg/kg/injection, schedule: Q01DX001 (ip), vehicle: saline) was 210 % of control. For the same compound, the T/C (dose: 1.4 mg/kg/injection, schedule: Q04DX003 (ip), vehicle: saline) was 102 % of control, the T/C (dose: 1.44 mg/kg/injection, schedule: Q04DX003 (ip), vehicle: water) was 158 % of control and 295 % of control and the T/C (dose: 1.5 mg/kg/injection, schedule: Q01DX001 (ip), vehicle: saline) was 100 % of control and 114 % of control. The T/C (dose: 1.5 mg/kg/injection, schedule: Q01DX009 (ip), vehicle: saline) was 164 % of control and 412 % of control, the T/C (dose: 1.5 mg/kg/injection, schedule: Q03DX001 (ip), vehicle: saline) was 412 % of control and the T/C (dose: 1.5 mg/kg/injection, schedule: Q03HX008 (ip), vehicle: saline) was 206 % of control. The T/C (dose: 1.5 mg/kg/injection, schedule: Q04DX003 (ip), vehicle: saline) was 152 % of control and 412 % of control, the T/C (dose: 1.88 mg/kg/injection, schedule: Q01DX001 (ip), vehicle: water) was 241 % of control and 308 % of control and the T/C (dose: 1.9 mg/kg/injection, schedule: Q01DX001 (ip), vehicle: water) was 165 % of control. The T/C (dose: 2.0 mg/kg/injection, schedule: Q01DX009 (ip), vehicle: water) was 219 % of control and 275 % of control, the T/C (dose: 2.0 mg/kg/injection, schedule: Q03HX008 (ip), vehicle: saline) was 152 % of control and the T/C (dose: 2.4 mg/kg/injection, schedule: Q04DX003 (ip), vehicle: saline) was 105 % of control. The T/C (dose: 2.4 mg/kg/injection, schedule: Q04DX003 (ip), vehicle: water) was 155 % of control and 233 % of control, the T/C (dose: 3.0 mg/kg/injection, schedule: Q03DX001 (ip), vehicle: saline) was 177 % of control and the T/C (dose: 3.0 mg/kg/injection, schedule: Q04DX003 (ip), vehicle: saline) was 162 % of control and 412 % of control. The T/C (dose: 3.75 mg/kg/injection, schedule: Q01DX001 (ip), vehicle: water) was 214 % of control and 308 % of control, the T/C (dose: 3.8 mg/kg/injection, schedule: Q01DX001 (ip), vehicle: water) was 111 % of control and the T/C (dose: 4.0 mg/kg/injection, schedule: Q04DX003 (ip), vehicle: water) was 184 % of control and 202 % of control. For the same compound, the T/C (dose: 5.9 mg/kg/injection, schedule: Q04DX003 (ip), vehicle: saline) was 428 % of control, the T/C (dose: 6.0 mg/kg/injection, schedule: Q01DX001 (ip), vehicle: saline) was 308 % of control and the T/C (dose: 6.0 mg/kg/injection, schedule: Q03DX001 (ip), vehicle: saline) was 264 % of control. The T/C (dose: 6.0 mg/kg/injection, schedule: Q04DX003 (ip), vehicle: saline) was 189 % of control, the T/C (dose: 6.67 mg/kg/injection, schedule: Q04DX003 (ip), vehicle: saline) was 118 % of control and the T/C (dose: 6.67 mg/kg/injection, schedule: Q04DX003 (ip), vehicle: water) was 198 % of control and 321 % of control. The T/C (dose: 8.0 mg/kg/injection, schedule: Q04DX003 (ip), vehicle: saline) was 165 % of control and 180 % of control, the T/C (dose: 9.0 mg/kg/injection, schedule: Q04DX003 (ip), vehicle: saline) was 103 % of control and the T/C (dose: 12.0 mg/kg/injection, schedule: Q03DX001 (ip), vehicle: saline) was 100 % of control. For the same compound, the T/C (dose: 13.3 mg/kg/injection, schedule: Q01DX001 (ip), vehicle: saline) was 150 % of control and 155 % of control, the T/C (dose: 32.0 mg/kg/injection, schedule: Q01DX001 (ip), vehicle: saline) was 40 % of control and the T/C (dose: 32.0 mg/kg/injection, schedule: Q01DX001 (ip), vehicle: water) was 116 % of control. The T/C (dose: 64.0 mg/kg/injection, schedule: Q01DX001 (ip), vehicle: saline) was 25 % of control, the T/C (dose: 128.0 mg/kg/injection, schedule: Q01DX001 (ip), vehicle: saline) was 20 % of control and the T/C (dose: 125.0 micrograms/kg/injection, schedule: Q01DX009 (ip), vehicle: other) was 178 % of control. For the same compound, the T/C (dose: 250.0 micrograms/kg/injection, schedule: Q01DX009 (ip), vehicle: other) was 246 % of control, the T/C (dose: 500.0 micrograms/kg/injection, schedule: Q01DX009 (ip), vehicle: other) was 379 % of control and the T/C (dose: 518.0 micrograms/kg/injection, schedule: Q01DX004 (ip), vehicle: other) was 112 % of control. For the same compound, the T/C (dose: 864.0 micrograms/kg/injection, schedule: Q01DX004 (ip), vehicle: other) was 122 % of control, the T/C (dose: 1000.0 micrograms/kg/injection, schedule: Q01DX009 (ip), vehicle: other) was 380 % of control and the T/C (dose: 2000.0 micrograms/kg/injection, schedule: Q01DX009 (ip), vehicle: other) was 382 % of control. The T/C (dose: 4000.0 micrograms/kg/injection, schedule: Q01DX004 (ip), vehicle: other) was 100 % of control and 112 % of control.

With Cc1ccc(NC(=S)N(C)C)cc1C the T/C [1] was 100 % of control, the T/C [2] was 100 % of control and the T/C (dose: 400.0 mg/kg/injection, schedule: Q01DX009 (ip), vehicle: Klucel (hydroxypropylcellulose) (HPC)) was 92 % of control.

With CCCCCn1c(C)cc(/C=C\c2ccc3cc(C)ccc3[n+]2C)c1C the T/C (dose: 0.62 mg/kg/injection, schedule: Q01DX009 (ip), vehicle: Klucel (hydroxypropylcellulose) (HPC)) was 93 % of control and the T/C (dose: 1.25 mg/kg/injection, schedule: Q01DX009 (ip), vehicle: Klucel (hydroxypropylcellulose) (HPC)) was 87 % of control.

O=C(Nc1cccc([N+](=O)[O-])c1)c1cc2ccccc2cc1O was tested, and the T/C [3] was 110 % of control, the T/C (dose: 200.0 mg/kg/injection, schedule: Q01DX009 (ip), vehicle: saline with Tween-80) was 107 % of control and the T/C (dose: 400.0 mg/kg/injection, schedule: Q01DX009 (ip), vehicle: saline with Tween-80) was 105 % of control.

For CC(C)NC(=O)N(c1ccccc1)C(C)C, the T/C [4] was 105 % of control and the T/C [1] was 103 % of control.

With O=C(O)CC[P+](c1ccccc1)(c1ccccc1)c1ccccc1 the T/C (dose: 100.0 mg/kg/injection, schedule: Q04DX003 (ip), vehicle: saline) was 101 % of control, the T/C (dose: 200.0 mg/kg/injection, schedule: Q04DX003 (ip), vehicle: saline) was 116 % of control and the T/C (dose: 400.0 mg/kg/injection, schedule: Q04DX003 (ip), vehicle: saline) was 116 % of control.

With CC1CCC2(C)CCC3(C)C(=CCC4C5(C)CCC(O)C(C)(C)C5CCC43C)C2C1C (stereo unspecified) the T/C [4] was 99 % of control, the T/C [1] was 97 % of control and the T/C [2] was 90 % of control.

CCN(CC)CCNc1ccc(N=Nc2cnc3ccccc3c2)c2ccccc12 was tested, and the T/C [5] was 90 % of control and the T/C [6] was 94 % of control.

C[C@@H]1CN1C1=CC(=O)C(N2C[C@H]2C)=CC1=O was tested, and the T/C (dose: 0.25 mg/kg/injection, schedule: Q01DX009 (ip), vehicle: saline) was 104 % of control and the T/C (dose: 0.5 mg/kg/injection, schedule: Q01DX009 (ip), vehicle: saline) was 95 % of control.

With CCCCn1cnc2c(SC)ncnc21 the T/C [5] was 90 % of control and 115 % of control, the T/C [6] was 87 % of control and 111 % of control and the T/C [3] was 92 % of control and 115 % of control.
